Where two headings read alike, the source gives them in different places.
Assays:
NCI-H82 cell [1] = test: Cell viability, Promega CellTiter-Glo, NCI-H82 cell; assay type: cell-based; settings: NCI-H82 cell without CSA (inactive mPTP); read-out: IC50 of cell viability inhibition
Experimental: (§1) Cell viability was detected by using the Promega CellTiter-Glo kit, the kit reflected cell viability by directly measuring intracellular ATP content. […] Daoy cell and NCI-H82 cell were cultured in DMEM containing 10% FBS (plus p/s).

[2] = test system: oxidative phosphorylation pathway of mitochondria; test: Cellular oxygen consumption (OCR), XFe metabolic analysis system; assay type: cell-based; settings: NCI-H82 cell; 118.2 μM; within half an hour; FIG. 1
Experimental: The oxygen required by cell was mainly consumed in the mitochondria respiratory chain, so the measurement of cellular oxygen consumption (OCR, oxygen consumption rate) could directly reflect the activity of the oxidative phosphorylation pathway of mitochondria. In this experiment, the XFe metabolic analysis system was used to measure the oxygen consumption of NCI-H82 cell in the presence or absence of Compound SJ2858 (baicalein) and Compound SJ2775 (baicalin).
Rotenone (abbreviated as RO, 0.5 μM) is a known inhibitor of mitochondria oxidative phosphorylation pathway complex I, Antimycin A (abbreviated as AA, 0.5 μM) is a known inhibitor of mitochondria oxidative phosphorylation pathway complex III. Compound SJ2858, 73.2 μM; Compound SJ2775, 118.2 μM.

Daoy cell [3] = test: Cell viability, Promega CellTiter-Glo, Daoy cell; assay type: cell-based, human; settings: read-out: IC50 of cell viability inhibition
Experimental: as §1

NCI-H82 cell [4] = test: Mitochondria membrane potential difference by TMRM, NCI-H82 cell; assay type: cell-based
Description: (§2) For cells with active mitochondria permeability transition pore, adding peroxide (such as H2O2) could increase the activity of mitochondria permeability transition pore, resulting in a decrease in mitochondria membrane potential.
(§3) The mitochondria membrane potential difference was detected by Tetramethylrhodamine (TMRM), the high fluorescence intensity of TMRM represented the high membrane potential difference.

Daoy cell [5] = test: Mitochondria membrane potential difference by TMRM, Daoy cell; assay type: cell-based, human
Description: as §2, §3

## O=C(O)[C@H]1O[C@@H](Oc2cc3oc(-c4ccccc4)cc(=O)c3c(O)c2O)[C@H](O)[C@@H](O)[C@@H]1O [Compound SJ2775, baicalin]
NCI-H82 cell [1]
  IC50: 38.6 µM
[2]
  Inhibition of oxygen consumption (in words): significantly inhibit
Daoy cell [3]; Daoy cell with CSA (1.5 μM mPTP inhibitor)
  IC50: 45.4 µM
Daoy cell [3]; Daoy cell without CSA (active mPTP)
  IC50: > 100 µM

## OO [Compound H2O2, H2O2]
NCI-H82 cell [4]
  Effect on membrane potential (in words): not affected
NCI-H82 cell [4]; H2O2 +, CsA −
  Relative TMRM signal intensity (%), mean value: 119%
Daoy cell [5]
  Effect on membrane potential (in words): down-regulated
Daoy cell [5]; H2O2 +, CsA −
  Relative TMRM signal intensity (%), mean value: 82%
